Assay results reported in publication PMC5218480 (PLoS ONE, 2017).

System: MV-4-11 cells
Assay: Gene expression microarray analysis (Affymetrix PrimeView) and GSEA
Type: cell-based, human
Parameters: RFU PODN (11730768_x_at) / Fold change /veh PODN (11730768_x_at) / RFU LINC00158 (11744669_a_at) / Fold change /veh LINC00158 (11744669_a_at) / RFU DUSP10 (11751237_a_at) / Fold change /veh DUSP10 (11751237_a_at) / RFU ID3 (11757404_x_at) / Fold change /veh ID3 (11757404_x_at) / RFU PLEKHG5 (11737974_s_at) / Fold change /veh PLEKHG5 (11737974_s_at) / RFU LRRC4B (11730491_at) / Fold change /veh LRRC4B (11730491_at) / RFU GIMAP4 (11747438_a_at) / Fold change /veh GIMAP4 (11747438_a_at) / RFU KRT8 (11758183_x_at) / Fold change /veh KRT8 (11758183_x_at) / RFU CNN1 (11734310_a_at) / Fold change /veh CNN1 (11734310_a_at) / RFU VPS37D (11726825_at) / Fold change /veh VPS37D (11726825_at) / RFU C10orf10 (11716522_x_at) / Fold change /veh C10orf10 (11716522_x_at) / RFU KIR2DL2 /// KIR2DL4 /// KIR2DL5A /// KIR2DL5B /// KIR2DS1 /// KIR2DS2 /// KIR2DS3 /// KIR2DS4 /// KIR3DL3 /// KIR3DL3 /// KIR3DS1 (11738374_at) / Fold change /veh KIR2DL2 /// KIR2DL4 /// KIR2DL5A /// KIR2DL5B /// KIR2DS1 /// KIR2DS2 /// KIR2DS3 /// KIR2DS4 /// KIR3DL3 /// KIR3DL3 /// KIR3DS1 (11738374_at) / RFU C1QL1 (11718748_at) / Fold change /veh C1QL1 (11718748_at) / RFU TMPRSS4 (11747572_a_at) / Fold change /veh TMPRSS4 (11747572_a_at) / RFU HAMP (11756126_x_at) / Fold change /veh HAMP (11756126_x_at) / RFU RNFT2 (11725882_a_at) / Fold change /veh RNFT2 (11725882_a_at) / RFU NR4A2 (11747474_a_at) / Fold change /veh NR4A2 (11747474_a_at) / RFU ABCC12 (11746883_a_at) / Fold change /veh ABCC12 (11746883_a_at) / RFU TMEM136 (11760407_x_at) / Fold change /veh TMEM136 (11760407_x_at) / RFU CLDN22 /// WWC2 (11732394_at) / Fold change /veh CLDN22 /// WWC2 (11732394_at) / RFU HLA-DPB1 (11760878_x_at) / Fold change /veh HLA-DPB1 (11760878_x_at) / RFU SPINT1 (11716480_a_at) / Fold change /veh SPINT1 (11716480_a_at) / RFU GAP43 (11754022_s_at) / Fold change /veh GAP43 (11754022_s_at) / RFU A4GNT (11735810_at) / Fold change /veh A4GNT (11735810_at) / RFU PRB3 (11715151_x_at) / Fold change /veh PRB3 (11715151_x_at) / RFU TUBB4B (11761932_at) / Fold change /veh TUBB4B (11761932_at) / RFU CAPN14 (11732068_a_at) / Fold change /veh CAPN14 (11732068_a_at) / RFU TMCC2 (11721928_a_at) / Fold change /veh TMCC2 (11721928_a_at) / RFU IRGQ (11745062_a_at) / Fold change /veh IRGQ (11745062_a_at) / RFU FAM174B (11720279_a_at) / Fold change /veh FAM174B (11720279_a_at) / RFU TMPRSS4 (11748680_a_at) / Fold change /veh TMPRSS4 (11748680_a_at) / RFU FAM212B (11763350_a_at) / Fold change /veh FAM212B (11763350_a_at) / RFU PLEKHG5 (11743358_a_at) / Fold change /veh PLEKHG5 (11743358_a_at) / RFU ZSCAN30 (11745921_a_at) / Fold change /veh ZSCAN30 (11745921_a_at) / RFU CMKLR1 (11741424_a_at) / Fold change /veh CMKLR1 (11741424_a_at) / RFU LOC101060620 /// MAPK8IP1 (11723275_at) / Fold change /veh LOC101060620 /// MAPK8IP1 (11723275_at) / RFU SPTSSB (11747773_x_at) / Fold change /veh SPTSSB (11747773_x_at) / RFU PRSS12 (11739890_at) / Fold change /veh PRSS12 (11739890_at) / RFU BIN1 (11741810_x_at) / Fold change /veh BIN1 (11741810_x_at) / RFU WNT11 (11732464_a_at) / Fold change /veh WNT11 (11732464_a_at) / RFU C10orf10 (11716521_a_at) / Fold change /veh C10orf10 (11716521_a_at) / RFU C5orf56 (11738089_at) / Fold change /veh C5orf56 (11738089_at) / RFU CYB561 (11721691_x_at) / Fold change /veh CYB561 (11721691_x_at) / RFU ANKRD19P (11752326_a_at) / Fold change /veh ANKRD19P (11752326_a_at) / RFU OR2T12 /// OR2T33 /// OR2T8 (11738714_s_at) / Fold change /veh OR2T12 /// OR2T33 /// OR2T8 (11738714_s_at) / RFU VCAN (11748164_a_at) / Fold change /veh VCAN (11748164_a_at) / RFU JSRP1 (11732532_at) / Fold change /veh JSRP1 (11732532_at) / RFU KRTAP10-11 (11738290_x_at) / Fold change /veh KRTAP10-11 (11738290_x_at) / RFU MYO3A (11730013_a_at) / Fold change /veh MYO3A (11730013_a_at) / RFU EBF3 (11725865_a_at) / Fold change /veh EBF3 (11725865_a_at) / RFU CAMK2N1 (11719241_x_at) / Fold change /veh CAMK2N1 (11719241_x_at) / RFU C5orf56 (11738088_a_at) / Fold change /veh C5orf56 (11738088_a_at) / RFU OLFML3 (11715873_a_at) / Fold change /veh OLFML3 (11715873_a_at) / RFU LOC100653217 /// NTM (11731650_a_at) / Fold change /veh LOC100653217 /// NTM (11731650_a_at) / RFU MAPK11 (11762145_a_at) / Fold change /veh MAPK11 (11762145_a_at) / RFU FIZ1 (11724087_x_at) / Fold change /veh FIZ1 (11724087_x_at) / RFU OASL (11726364_x_at) / Fold change /veh OASL (11726364_x_at) / RFU SOX15 (11748057_x_at) / Fold change /veh SOX15 (11748057_x_at) / RFU CD79A (11719716_a_at) / Fold change /veh CD79A (11719716_a_at) / RFU HIST1H1D (11736915_at) / Fold change /veh HIST1H1D (11736915_at) / RFU CASKIN2 (11723855_a_at) / Fold change /veh CASKIN2 (11723855_a_at) / RFU LOC730098 (11760151_x_at) / Fold change /veh LOC730098 (11760151_x_at) / RFU OR4N2 (11742367_at) / Fold change /veh OR4N2 (11742367_at) / RFU PRRT2 (11749266_a_at) / Fold change /veh PRRT2 (11749266_a_at) / RFU SNX32 (11753110_a_at) / Fold change /veh SNX32 (11753110_a_at) / RFU CDHR5 (11726645_a_at) / Fold change /veh CDHR5 (11726645_a_at) / RFU RCAN1 (11760418_a_at) / Fold change /veh RCAN1 (11760418_a_at) / RFU FAM167A (11723789_a_at) / Fold change /veh FAM167A (11723789_a_at) / RFU FAM26E (11764081_at) / Fold change /veh FAM26E (11764081_at) / RFU ISYNA1 (11749810_s_at) / Fold change /veh ISYNA1 (11749810_s_at) / RFU ACY1 (11761880_at) / Fold change /veh ACY1 (11761880_at) / RFU 11764098_at / Fold change /veh 11764098_at / RFU SAMD14 (11745864_x_at) / Fold change /veh SAMD14 (11745864_x_at) / RFU NPB (11741838_a_at) / Fold change /veh NPB (11741838_a_at) / RFU TMPRSS6 (11731388_a_at) / Fold change /veh TMPRSS6 (11731388_a_at) / RFU KRTAP10-2 (11738614_at) / Fold change /veh KRTAP10-2 (11738614_at) / RFU ARHGAP8 /// PRR5-ARHGAP8 (11727945_x_at) / Fold change /veh ARHGAP8 /// PRR5-ARHGAP8 (11727945_x_at) / RFU KRTAP5-7 /// NADSYN1 (11734609_at) / Fold change /veh KRTAP5-7 /// NADSYN1 (11734609_at) / RFU RASL12 (11751679_a_at) / Fold change /veh RASL12 (11751679_a_at) / RFU CDKN2B (11736163_a_at) / Fold change /veh CDKN2B (11736163_a_at) / RFU PRF1 (11729649_at) / Fold change /veh PRF1 (11729649_at) / RFU, ZNF638 /// ZNF638-IT1 / Fold change vs veh, ZNF638 /// ZNF638-IT1 / RFU, PANK3 / Fold change vs veh, PANK3 / RFU, SH3YL1 / Fold change vs veh, SH3YL1 / RFU, ZEB2 / Fold change vs veh, ZEB2 / RFU, NRIP1 / Fold change vs veh, NRIP1 / RFU, PTTG1IP / Fold change vs veh, PTTG1IP / RFU, CAPN2 / Fold change vs veh, CAPN2 / RFU, MED14 / Fold change vs veh, MED14 / RFU, SNORA58 / Fold change vs veh, SNORA58 / RFU, C1orf63 / Fold change vs veh, C1orf63 / RFU, LRRFIP1 / Fold change vs veh, LRRFIP1 / RFU, NDUFAF7 / Fold change vs veh, NDUFAF7 / RFU, SLC12A2 / Fold change vs veh, SLC12A2 / RFU, IBTK / Fold change vs veh, IBTK / RFU, ESF1 / Fold change vs veh, ESF1 / Fold change vs veh, TMEM50B / RFU, TAOK1 / Fold change vs veh, TAOK1 / RFU, ACBD3 / Fold change vs veh, ACBD3 / RFU, TMA16 / Fold change vs veh, TMA16 / RFU, RWDD3 / Fold change vs veh, RWDD3 / RFU, BCAT1 / Fold change vs veh, BCAT1 / RFU, EDEM3 / Fold change vs veh, EDEM3 / RFU, TMEM33 / Fold change vs veh, TMEM33 / RFU, WDR75 / Fold change vs veh, WDR75 / RFU, AHCTF1 / Fold change vs veh, AHCTF1 / RFU, TFRC / Fold change vs veh, TFRC / RFU, ZDHHC17 / Fold change vs veh, ZDHHC17 / RFU, NOM1 / Fold change vs veh, NOM1 / RFU, ARL8B / Fold change vs veh, ARL8B / RFU, ZBTB11 / Fold change vs veh, ZBTB11 / RFU, TAMM41 / Fold change vs veh, TAMM41 / RFU, KIAA1704 /// LOC100996395 / Fold change vs veh, KIAA1704 /// LOC100996395 / RFU, ING1 / Fold change vs veh, ING1 / RFU, TRMT61B / Fold change vs veh, TRMT61B / RFU, FUBP3 / Fold change vs veh, FUBP3 / RFU, TP53 / Fold change vs veh, TP53 / RFU, TNKS2 / Fold change vs veh, TNKS2 / RFU, ZFP14 / Fold change vs veh, ZFP14 / RFU, ACTR2 / Fold change vs veh, ACTR2 / RFU, PPP3R1 / Fold change vs veh, PPP3R1 / RFU, PIK3R1 / Fold change vs veh, PIK3R1 / RFU, HNRNPA1 / Fold change vs veh, HNRNPA1 / RFU, RNF170 / Fold change vs veh, RNF170 / RFU, ZNF28 / Fold change vs veh, ZNF28 / RFU, RNGTT / Fold change vs veh, RNGTT / RFU, OGT / Fold change vs veh, OGT / RFU, BRD1 / Fold change vs veh, BRD1 / RFU, MARS / Fold change vs veh, MARS / RFU, ZNF655 / Fold change vs veh, ZNF655 / RFU, FAHD1 / Fold change vs veh, FAHD1 / RFU, BDP1 / Fold change vs veh, BDP1 / RFU, LRRCC1 / Fold change vs veh, LRRCC1 / RFU, ARID1A / Fold change vs veh, ARID1A / RFU, ZNF146 / Fold change vs veh, ZNF146 / RFU, ZNF330 / Fold change vs veh, ZNF330 / RFU, GPN3 / Fold change vs veh, GPN3 / RFU, C9orf123 / Fold change vs veh, C9orf123 / RFU, N4BP2L2 / Fold change vs veh, N4BP2L2 / RFU, ARFIP1 / Fold change vs veh, ARFIP1 / RFU, FAM179B / Fold change vs veh, FAM179B / RFU, BCL10 / Fold change vs veh, BCL10 / RFU, UHRF1BP1L / Fold change vs veh, UHRF1BP1L / RFU, BET1 / Fold change vs veh, BET1 / RFU, CNOT2 / Fold change vs veh, CNOT2 / RFU, ZNF268 / Fold change vs veh, ZNF268 / Fold change vs veh, ZNF507 / RFU, DGCR2 / Fold change vs veh, DGCR2 / RFU, WDSUB1 / Fold change vs veh, WDSUB1 / Fold change vs veh, HSP90B1 /// MIR3652 / RFU, ADSS / Fold change vs veh, ADSS / RFU, GK / Fold change vs veh, GK / RFU, ZNF148 / Fold change vs veh, ZNF148 / RFU, TAF9 / Fold change vs veh, TAF9 / RFU, SLC1A5 / Fold change vs veh, SLC1A5 / RFU, SLMO2 / Fold change vs veh, SLMO2 / RFU, ABCC4 / Fold change vs veh, ABCC4 / RFU, LOC101060439 /// RAP1B / Fold change vs veh, LOC101060439 /// RAP1B / RFU, RFX7 / Fold change vs veh, RFX7 / RFU, GTPBP10 / Fold change vs veh, GTPBP10 / RFU, CNEP1R1 / Fold change vs veh, CNEP1R1 / RFU, BIVM-ERCC5 /// ERCC5 / Fold change vs veh, BIVM-ERCC5 /// ERCC5 / RFU, ILF3 / Fold change vs veh, ILF3 / RFU 11762660_at / Fold change /veh 11762660_at / RFU VCAN (11757783_s_at) / Fold change /veh VCAN (11757783_s_at) / RFU DDX43 (11728927_at) / Fold change /veh DDX43 (11728927_at) / RFU KRT8 (11758188_x_at) / Fold change /veh KRT8 (11758188_x_at) / RFU NKD1 (11759106_at) / Fold change /veh NKD1 (11759106_at) / RFU SRD5A1 (11742802_a_at) / Fold change /veh SRD5A1 (11742802_a_at) / RFU TPSAB1 /// TPSB2 (11721975_s_at) / Fold change /veh TPSAB1 /// TPSB2 (11721975_s_at) / RFU GSTM3 (11746129_a_at) / Fold change /veh GSTM3 (11746129_a_at) / RFU IL23R (11737362_x_at) / Fold change /veh IL23R (11737362_x_at) / RFU TMEM51 (11727254_a_at) / Fold change /veh TMEM51 (11727254_a_at) / RFU PIWIL2 (11732686_x_at) / Fold change /veh PIWIL2 (11732686_x_at) / RFU ORM1 (11744905_x_at) / Fold change /veh ORM1 (11744905_x_at) / RFU CCDC152 (11743942_at) / Fold change /veh CCDC152 (11743942_at) / RFU ECM1 (11717891_a_at) / Fold change /veh ECM1 (11717891_a_at) / RFU IL23R (11748794_a_at) / Fold change /veh IL23R (11748794_a_at) / RFU TNFAIP8L3 (11732012_x_at) / Fold change /veh TNFAIP8L3 (11732012_x_at) / RFU MBOAT4 (11741988_at) / Fold change /veh MBOAT4 (11741988_at) / RFU 11764193_at / Fold change /veh 11764193_at / RFU TMEM53 (11763286_at) / Fold change /veh TMEM53 (11763286_at) / RFU MAGEB2 (11727129_at) / Fold change /veh MAGEB2 (11727129_at) / RFU TMEM200A (11744735_a_at) / Fold change /veh TMEM200A (11744735_a_at) / RFU CCDC152 (11751479_a_at) / Fold change /veh CCDC152 (11751479_a_at) / RFU FAM211A (11726209_a_at) / Fold change /veh FAM211A (11726209_a_at) / RFU RGS16 (11746705_a_at) / Fold change /veh RGS16 (11746705_a_at) / RFU VCAN (11755009_s_at) / Fold change /veh VCAN (11755009_s_at) / RFU RHOB (11743442_s_at) / Fold change /veh RHOB (11743442_s_at) / RFU RGS16 (11720943_a_at) / Fold change /veh RGS16 (11720943_a_at) / RFU RGS16 (11720944_at) / Fold change /veh RGS16 (11720944_at) / RFU, VPS4B / Fold change vs veh, VPS4B / RFU, CREB1 / Fold change vs veh, CREB1 / RFU, DNAJC13 / Fold change vs veh, DNAJC13 / RFU, GNAQ / Fold change vs veh, GNAQ / RFU, CDK5R1 / Fold change vs veh, CDK5R1 / RFU, ZRANB3 / Fold change vs veh, ZRANB3 / RFU, CUL4A / Fold change vs veh, CUL4A / RFU, CCNY / Fold change vs veh, CCNY / RFU, UFL1 / Fold change vs veh, UFL1 / RFU, COG3 / Fold change vs veh, COG3 / RFU, DIAPH2 / Fold change vs veh, DIAPH2 / RFU, SKA2 / Fold change vs veh, SKA2 / RFU, AFF3 / Fold change vs veh, AFF3 / RFU, LMF1 / Fold change vs veh, LMF1 / RFU, IPO11 / Fold change vs veh, IPO11 / RFU, DFFB / Fold change vs veh, DFFB / RFU, FOXP1 / Fold change vs veh, FOXP1 / RFU, CARD8 / Fold change vs veh, CARD8 / RFU, STRN3 / Fold change vs veh, STRN3 / RFU, ADK / Fold change vs veh, ADK / RFU, RASSF2 / Fold change vs veh, RASSF2 / RFU, WIPF1 / Fold change vs veh, WIPF1 / RFU, LARP1B / Fold change vs veh, LARP1B / RFU, RASA1 / Fold change vs veh, RASA1 / RFU, RB1 / Fold change vs veh, RB1 / RFU, PPFIA1 / Fold change vs veh, PPFIA1 / RFU, MAT2A / Fold change vs veh, MAT2A / RFU, CCT5 / Fold change vs veh, CCT5 / RFU, WDR92 / Fold change vs veh, WDR92 / RFU, CUX1 / Fold change vs veh, CUX1 / RFU, TTC7A / Fold change vs veh, TTC7A / RFU, TMEM135 / Fold change vs veh, TMEM135 / RFU, DEPTOR / Fold change vs veh, DEPTOR / RFU, CPM / Fold change vs veh, CPM / RFU, DNAJB6 / Fold change vs veh, DNAJB6 / RFU, CACNA2D3 / Fold change vs veh, CACNA2D3 / RFU, DTX4 / Fold change vs veh, DTX4 / RFU, TFCP2 / Fold change vs veh, TFCP2 / RFU, GMCL1 /// GMCL1P1 / Fold change vs veh, GMCL1 /// GMCL1P1 / RFU, AEBP2 / Fold change vs veh, AEBP2 / RFU, SNHG1 /// SNORD22 /// SNORD25 /// SNORD26 /// SNORD27 /// SNORD28 /// SNORD29 /// SNORD31 / Fold change vs veh, SNHG1 /// SNORD22 /// SNORD25 /// SNORD26 /// SNORD27 /// SNORD28 /// SNORD29 /// SNORD31 / Fold change (Aza/veh), C12orf56 (ProbeSet 11735607_a_at) / Fold change (ACY-1035/veh), C12orf56 (ProbeSet 11735607_a_at) / Fold change (Aza/veh), FGFR1OP (ProbeSet 11751329_s_at) / Fold change (ACY-1035/veh), FGFR1OP (ProbeSet 11751329_s_at) / Fold change (Aza/veh), VPS36 (ProbeSet 11739960_a_at) / Fold change (ACY-1035/veh), VPS36 (ProbeSet 11739960_a_at) / RFU SYPL1 (11715823_x_at) / Fold change /veh SYPL1 (11715823_x_at) / RFU IGFBP7 (11715501_s_at) / Fold change /veh IGFBP7 (11715501_s_at) / RFU REEP3 (11722064_at) / Fold change /veh REEP3 (11722064_at) / RFU IGLL1 (11728026_x_at) / Fold change /veh IGLL1 (11728026_x_at): dose or concentration left out as unconfirmed
Settings: MV-4-11 cells, 48 hours

## Nc1ncn([C@@H]2O[C@H](CO)[C@@H](O)[C@H]2O)c(=O)n1 [azacitidine]
  Fold change /veh FIZ1 (11724087_x_at): 1.09
